Measurements from ChEMBL document CHEMBL1667848, “Synthesis and evaluation of trehalose-based compounds as anti-invasive agents” (Bioorg Med Chem Lett, 2011).
In brackets after ≈: the same amount, converted by molar mass.

Legend:
[1] = Antiinvasive activity against mouse 26-L5 cells by transwell migration assay; type: functional, cell-based
[2] = Cytotoxicity against mouse 26-L5 cells upto 10 ug/ml; type: cell-based
[3] = Antiinvasive activity against mouse 26-L5 cells at 1 ug/ml by transwell migration assay; type: functional

| Structure (SMILES) | IC50 [1] | Activity [2] | IC50 ([1]; Mus musculus, read-out: IC50) | inhibition at 1 µg/mL [3] |
| --- | --- | --- | --- | --- |
| COc1ccc(C(=O)OC[C@H]2O[C@H](O[C@H]3O[C@H](COC(=O)c4ccc(OC)cc4)[C@@H](O)[C@H](O)[C@H]3O)[C@H](O)[C@@H](O)[C@@H]2O)cc1 | Not Active | Non-toxic | – | – |
| COc1cc(C(=O)OC[C@H]2O[C@H](O[C@H]3O[C@H](COC(=O)c4ccc(F)c(OC)c4)[C@@H](O)[C@H](O)[C@H]3O)[C@H](O)[C@@H](O)[C@@H]2O)ccc1F | Not Active | Non-toxic | – | – |
| O=C(OC[C@H]1O[C@H](O[C@H]2O[C@H](COC(=O)c3cccc(O)c3O)[C@@H](O)[C@H](O)[C@H]2O)[C@H](O)[C@@H](O)[C@@H]1O)c1cccc(O)c1O | – | Non-toxic | < 1 µg/mL | 40% |
| Cc1cc(O)cc(O)c1C(=O)OC[C@H]1O[C@H](O[C@H]2O[C@H](COC(=O)c3c(C)cc(O)cc3O)[C@@H](O)[C@H](O)[C@H]2O)[C@H](O)[C@@H](O)[C@@H]1O [BRARTEMICIN] | – | Non-toxic | 0.25 µg/mL (≈ 0.389 µM) | – |
| O=C(OC[C@H]1O[C@H](O[C@H]2O[C@H](COC(=O)c3c(F)cccc3F)[C@@H](O)[C@H](O)[C@H]2O)[C@H](O)[C@@H](O)[C@@H]1O)c1c(F)cccc1F | – | Non-toxic | 1 µg/mL (≈ 1.61 µM) | – |
| CCNc1cccc(C)c1C(=O)OC[C@H]1O[C@H](O[C@H]2O[C@H](COC(=O)c3c(C)cccc3NCC)[C@@H](O)[C@H](O)[C@H]2O)[C@H](O)[C@@H](O)[C@@H]1O | – | Non-toxic | 1 µg/mL (≈ 1.5 µM) | – |
| COc1cc(C(=O)OC[C@H]2O[C@H](O[C@H]3O[C@H](COC(=O)c4cc(OC)c(OC)c(OC)c4)[C@@H](O)[C@H](O)[C@H]3O)[C@H](O)[C@@H](O)[C@@H]2O)cc(OC)c1OC | Not Active | Non-toxic | – | – |
| COc1cccc(C(=O)OC[C@H]2O[C@H](O[C@H]3O[C@H](COC(=O)c4cccc(OC)c4OC)[C@@H](O)[C@H](O)[C@H]3O)[C@H](O)[C@@H](O)[C@@H]2O)c1OC | – | Non-toxic | 0.1 µg/mL (≈ 0.149 µM) | – |
| O=C(OC[C@H]1O[C@H](O[C@H]2O[C@H](COC(=O)c3ccc(O)cc3)[C@@H](O)[C@H](O)[C@H]2O)[C@H](O)[C@@H](O)[C@@H]1O)c1ccc(O)cc1 | – | Non-toxic | 1 µg/mL (≈ 1.72 µM) | – |
| O=C(OC[C@H]1O[C@H](O[C@H]2O[C@H](COC(=O)c3ccccc3O)[C@@H](O)[C@H](O)[C@H]2O)[C@H](O)[C@@H](O)[C@@H]1O)c1ccccc1O | – | Non-toxic | < 1 µg/mL | 35% |
| COc1ccccc1C(=O)OC[C@H]1O[C@H](O[C@H]2O[C@H](COC(=O)c3ccccc3OC)[C@@H](O)[C@H](O)[C@H]2O)[C@H](O)[C@@H](O)[C@@H]1O | – | Non-toxic | 1 µg/mL (≈ 1.64 µM) | – |
| Cc1ccccc1C(=O)OC[C@H]1O[C@H](O[C@H]2O[C@H](COC(=O)c3ccccc3C)[C@@H](O)[C@H](O)[C@H]2O)[C@H](O)[C@@H](O)[C@@H]1O | Not Active | Non-toxic | – | – |
